Target: T1, AM2 receptor (CALCRL+RAMP3) (Homo sapiens, UniProt O60896+Q16602)
T1 construct: host or cells: 1321N1
Assay: AM2 receptor inhibition, LANCE TR-FRET cAMP agonist-antagonist competition assay
Format: cell-based
Conditions: inhibition of AM induced cAMP activation; 1321N1 cells transfected with CALCRL+RAMP3; read-out: AM2 pIC50 (converted)
Method: Compounds were assessed for their ability to inhibit ligand-induced elevations of cAMP, using the Perkin Elmer LANCE cAMP assay using commercially-available cells expressing a specific receptor of interest using the following general procedure:
Compounds were prepared in dimethyl sulfoxide (DMSO—99.9% pure) (Sigma Aldrich, Cat #: D4540) added to powder stocks to produce a 20 mM solution (100% DMSO) that was sonicated at 37° C. for 10 minutes to fully dissolve the compounds. The 20 mM stocks were diluted further in DMSO to produce a 2 mM solution that was sonicated at 37° C. for 10 minutes. 2 mM stocks were dissolved in assay/stimulation buffer to produce a 400 μM solution that was sonicated at 37° C. for 10 minutes for all cAMP assays. All stocks were stored at −20° C. Then serial dilution (Dilution factor 10) was performed to achieve the desire experimental concentrations.
Competition assays were performed according to the manufactures instructions using LANCE® TR-FRET cAMP assay kit (Perkin Elmer, Cat #: AD0264). Serial dilutions (3 μl/well) of the molecules were plated in a 384-well OptiPlate (Perkin Elmer, Cat #: 6007299) in duplicates. Appropriate controls (100% stimulation: Forskolin and 0% stimulation: Vehicle control) (6 μl/well) were included in each plate for data normalization. Following the compound addition, 6 μl of G-protein coupled receptor overexpressing cells/Alexa Fluor antibody solution (1:100 dilution) was added in each well at a desired density of 2500 cells/well. The overexpressing cell lines were purchased from DiscoveRx, Birmingham, UK. After spinning the plate at 1000 rpm for 1 minute and vortexing briefly, the cells were pre-incubated with the compounds for 30 minutes at room temperature (covered). Then 3 μl of the equivalent peptide ligand (EC50 dose) was added to all the wells except vehicle and forskolin controls. The plate were then spun down at 1000 rpm for 1 minute and once finished they were vortexed briefly and covered. Cells were stimulated in the presence of the ligands for 15 minutes at room temperature. After stimulation 12 μl of detection mix (Europium-Chelate streptavidin/biotinylated cAMP tracer solution) was added to all wells and incubated for 60 minutes at room temperature. The plate was then read on the Enspire multimode Plate reader (Perkin Elmer), at; 320/340 nm excitation and 615/665 nm emission was recorded.
• 28 mL Hank's Balanced salt solution (+MgCl2, +CaCl2)—(Thermo Fisher Cat #:14170112) • 150 μl HEPES (1M)—(Thermo Fisher Cat #:15630080) • 400 μl Stabilizer (DTPA) Purified BSA (7.5%)—(Perkin Elmer, Cat #: CR84-100) • 60 μl IBMX (250 mM)—(Sigma Aldrich, Cat #: 15879) Specific cAMP/Agonist-Antagonist Competition Assays
The ability of a compound to inhibit the AM induced cAMP activation in AM2 receptor-expressing cells (1321N1 cells transfected with CALCRL+RAMP3, sourced from DiscoverX catalogue number 95-0169C6) was assessed using the protocol above.

T1 sequence (Q16602 23-461): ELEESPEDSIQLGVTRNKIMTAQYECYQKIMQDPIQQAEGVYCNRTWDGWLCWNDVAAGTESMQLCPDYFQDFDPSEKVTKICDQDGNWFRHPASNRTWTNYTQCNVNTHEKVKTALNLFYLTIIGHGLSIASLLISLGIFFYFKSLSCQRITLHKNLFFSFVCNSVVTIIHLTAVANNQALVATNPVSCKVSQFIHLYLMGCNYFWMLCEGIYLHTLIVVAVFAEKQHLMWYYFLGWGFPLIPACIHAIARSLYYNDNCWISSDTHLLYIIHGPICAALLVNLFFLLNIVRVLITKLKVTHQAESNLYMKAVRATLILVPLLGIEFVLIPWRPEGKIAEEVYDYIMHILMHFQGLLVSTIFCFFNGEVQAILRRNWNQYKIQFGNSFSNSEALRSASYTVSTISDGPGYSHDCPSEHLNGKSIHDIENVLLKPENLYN
T1 sequence (O60896 24-148): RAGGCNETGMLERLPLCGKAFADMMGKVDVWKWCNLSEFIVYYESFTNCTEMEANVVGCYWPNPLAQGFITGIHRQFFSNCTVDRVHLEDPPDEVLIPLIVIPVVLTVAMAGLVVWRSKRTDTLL

Row | Structure (SMILES) | IC50 [nM]
1 | CNCc1ccccc1CN(CC(=O)Nc1ccc2c(c1)CC1(C2)C(=O)Nc2ncccc21)C(=O)c1cscn1 (stereo not shown) [Example 60, N-(2-((Methylamino)methyl)benzyl)-N-(2-oxo-2-((2′-oxo-1,1′,2′,3-tetrahydrospiro[indene-2,3′-pyrrolo[2,3-b]pyridin]-5-yl)amino)ethyl)thiazole-4-carboxamide] | 7.08
2 | CNCc1ccccc1CN(CC(=O)Nc1ccc2c(c1)CC1(C2)C(=O)Nc2ncccc21)C(=O)c1csc(C)n1 (stereo not shown) [Example 61, 2-Methyl-N-(2-((methylamino)methyl)benzyl)-N-(2-oxo-2-((2′-oxo-1,1′,2′,3-tetrahydrospiro[indene-2,3′-pyrrolo[2,3-b]pyridin]-5-yl)amino)ethyl)thiazole-4-carboxamide] | 219
3 | CNCc1ccccc1CN(CC(=O)Nc1ccc2c(c1)CC1(C2)C(=O)Nc2ncccc21)C(=O)C1CCCCO1 (stereo not shown) [Example 64, N-(2-((Methylamino)methyl)benzyl)-N-(2-oxo-2-((2′-oxo-1,1′,2′,3-tetrahydrospiro[indene-2,3′-pyrrolo[2,3-b]pyridin]-5-yl)amino)ethyl)tetrahydro-2H-pyran-2-carboxamide] | 85.1
4 | CNCc1ccccc1CN(CC(=O)Nc1ccc2c(c1)CC1(C2)C(=O)Nc2ncccc21)C(=O)N1CCC(OC)C1 (stereo not shown) [Example 67, 3-Methoxy-N-[[2-(methylaminomethyl)phenyl]methyl]-N-[2-oxo-2-[(2-oxospiro[1H-pyrrolo[2,3-b]pyridine-3,2′-indane]-5′-yl)amino]ethyl]pyrrolidine-1-carboxamide] | 64.6
5 | CNCc1ccccc1CN(CC(=O)Nc1ccc2c(c1)CC1(C2)C(=O)Nc2ncccc21)C(=O)C1CCCN1C(C)=O (stereo not shown) [Example 69, 1-Acetyl-N-[[2-(methylaminomethyl)phenyl]methyl]-N-[2-oxo-2-[(2-oxospiro[1H-pyrrolo[2,3-b]pyridine-3,2′-indane]-5′-yl)amino]ethyl]pyrrolidine-2-carboxamide] | 129
6 | CNCc1ccccc1CN(CC(=O)Nc1ccc2c(c1)CC1(C2)C(=O)Nc2ncccc21)C(=O)C1CCN(C(C)=O)C1 (stereo not shown) [Example 74, 1-acetyl-N-(2-((methylamino)methyl)benzyl)-N-(2-oxo-2-((2′-oxo-1,1′,2′,3-tetrahydrospiro[indene-2,3′-pyrrolo[2,3-b]pyridin]-5-yl)amino)ethyl)pyrrolidine-3-carboxamide 2,2,2-trifluoroacetate] | 15.5
7 | CNCc1ccccc1CN(CC(=O)Nc1ccc2c(c1)CC1(C2)C(=O)Nc2ncccc21)C(=O)C1(C(F)(F)F)CC1 (stereo not shown) [Example 75, N-[[2-(methylaminomethyl)phenyl]methyl]-N-[2-oxo-2-[(2-oxospiro[1H-pyrrolo[2,3-b]pyridine-3,2′-indane]-5′-yl)amino]ethyl]-1-(trifluoromethyl)cyclopropanecarboxamide 2,2,2-trifluoroacetate] | 3.63
8 | CNCc1ccccc1CN(CC(=O)Nc1ccc2c(c1)CC1(C2)C(=O)Nc2ncccc21)C(=O)C1(C(F)(F)F)CCC1 (stereo not shown) [Example 76, N-[[2-(methylaminomethyl)phenyl]methyl]-N-[2-oxo-2-[(2-oxospiro[1H-pyrrolo[2,3-b]pyridine-3,2′-indane]-5′-yl)amino]ethyl]-1-(trifluoromethyl)cyclobutanecarboxamide 2,2,2-trifluoroacetate] | 1.35
9 | CNCc1ccccc1CN(CC(=O)Nc1ccc2c(c1)CC1(C2)C(=O)Nc2ncccc21)C(=O)C12CC(N)(C1)C2 (stereo not shown) [Example 77, 3-amino-N-[[2-(methylaminomethyl)phenyl]methyl]-N-[2-oxo-2-[(2-oxospiro[1H-pyrrolo[2,3-b]pyridine-3,2′-indane]-5′-yl)amino]ethyl]bicyclo[1.1.1]pentane-1-carboxamide bis(2,2,2-trifluoroacetate)] | 44.7
10 | CNCc1ccccc1CN(CC(=O)Nc1ccc2c(c1)CC1(C2)C(=O)Nc2ncccc21)C(=O)C1CCOC1 (stereo not shown) [Example 80, N-(2-((Methylamino)methyl)benzyl)-N-(2-oxo-2-((2′-oxo-1,1′,2′,3-tetrahydrospiro[indene-2,3′-pyrrolo[2,3-b]pyridin]-5-yl)amino)ethyl)tetrahydrofuran-3-carboxamide] | 14.8

The next lines start with the values.

Row | IC50 [nM] | Structure (SMILES)
11 | 42.7 | CNCc1ccccc1CN(CC(=O)Nc1ccc2c(c1)CC1(C2)C(=O)Nc2ncccc21)C(=O)c1ncsc1C (stereo not shown) [Example 62, 5-Methyl-N-(2-((methylamino)methyl)benzyl)-N-(2-oxo-2-((2′-oxo-1,1′,2′,3-tetrahydrospiro[indene-2,3′-pyrrolo[2,3-b]pyridin]-5-yl)amino)ethyl)thiazole-4-carboxamide]
12 | 53.7 | CNCc1ccccc1CN(CC(=O)Nc1ccc2c(c1)CC1(C2)C(=O)Nc2ncccc21)C(=O)C1CCCO1 (stereo not shown) [Example 63, N-(2-((Methylamino)methyl)benzyl)-N-(2-oxo-2-((2′-oxo-1,1′,2′,3-tetrahydrospiro[indene-2,3′-pyrrolo[2,3-b]pyridin]-5-yl)amino)ethyl)tetrahydrofuran-2-carboxamide]
13 | 2.82 | CNCc1ccccc1CN(CC(=O)Nc1ccc2c(c1)CC1(C2)C(=O)Nc2ncccc21)C(=O)C1CCCC1 (stereo not shown) [Example 65, N-(2-((methylamino)methyl)benzyl)-N-(2-oxo-2-((2′-oxo-1,1′,2′,3-tetrahydrospiro[indene-2,3′-pyrrolo[2,3-b]pyridin]-5-yl)amino)ethyl)cyclopentanecarboxamide]
14 | 33.1 | CNCc1ccccc1CN(CC(=O)Nc1ccc2c(c1)CC1(C2)C(=O)Nc2ncccc21)C(=O)C1CN(C(C)=O)C1 (stereo not shown) [Example 68, 1-(Acetyl)-N-[[2-(methylaminomethyl)phenyl]methyl]-N-[2-oxo-2-[(2-oxospiro[1H-pyrrolo[2,3-b]pyridine-3,2′-indane]-5′-yl)amino]ethyl]azetidine-3-carboxamide]
15 | 44.7 | CNCc1ccccc1CN(CC(=O)Nc1ccc2c(c1)CC1(C2)C(=O)Nc2ncccc21)C(=O)C1CCN(C(=O)CN)CC1 (stereo not shown) [Example 70, 1-(2-aminoacetyl)-N-(2-((methylamino)methyl)benzyl)-N-(2-oxo-2-((2′-oxo-1,1′,2′,3-tetrahydrospiro[indene-2,3′-pyrrolo[2,3-b]pyridin]-5-yl)amino)ethyl)piperidine-4-carboxamide bis(2,2,2-trifluoroacetate)]
16 | 2.45 | CNCc1ccccc1CN(CC(=O)Nc1ccc2c(c1)CC1(C2)C(=O)Nc2ncccc21)C(=O)C1CCN(C(=O)N(C)C)CC1 (stereo not shown) [Example 71, N1,N1-dimethyl-N4-(2-((methylamino)methyl)benzyl)-N4-(2-oxo-2-((2′-oxo-1,1′,2′,3-tetrahydrospiro[indene-2,3′-pyrrolo[2,3-b]pyridin]-5-yl)amino)ethyl)piperidine-1,4-dicarboxamide 2,2,2-trifluoroacetate]
17 | 8.32 | CNCc1ccccc1CN(CC(=O)Nc1ccc2c(c1)CC1(C2)C(=O)Nc2ncccc21)C(=O)C1CCN(C(=O)NC(C)C)CC1 (stereo not shown) [Example 73, N1-isopropyl-N4-(2-((methylamino)methyl)benzyl)-N4-(2-oxo-2-((2′-oxo-1,1′,2′,3-tetrahydrospiro[indene-2,3′-pyrrolo[2,3-b]pyridin]-5-yl)amino)ethyl)piperidine-1,4-dicarboxamide 2,2,2-trifluoroacetate]
18 | 5.5 | CNCc1ccccc1CN(CC(=O)Nc1ccc2c(c1)CC1(C2)C(=O)Nc2ncccc21)C(=O)C12CC(C1)C2 (stereo not shown) [Example 78, N-(2-((methylamino)methyl)benzyl)-N-(2-oxo-2-((2′-oxo-1,1′,2′,3-tetrahydrospiro[indene-2,3′-pyrrolo[2,3-b]pyridin]-5-yl)amino)ethyl)bicyclo[1.1.1]pentane-1-carboxamide 2,2,2-trifluoroacetate]
19 | 22.4 | CNCc1ccccc1CN(CC(=O)Nc1ccc2c(c1)CC1(C2)C(=O)Nc2ncccc21)C(=O)C1CCN(C(C)=O)CC1 (stereo not shown) [Example 79, 1-Acetyl-N-(2-((methylamino)methyl)benzyl)-N-(2-oxo-2-((2′-oxo-1,1′,2′,3-tetrahydrospiro[indene-2,3′-pyrrolo[2,3-b]pyridin]-5-yl)amino)ethyl)piperidine-4-carboxamide]

Reference: patent publication US11400081B2, “Compounds” (The University of Sheffield, priority 2017, dated 2022)
